{"source": "patent US20150094474A1", "about": "“AGRICULTURAL CHEMICALS” (Redx Pharma Ltd., priority 2012, published 2015)", "key": {"barley": {"test_system": "barley", "test": "Herbicidal bioassay, barley (% necrosis)", "type": "in vivo", "outline": "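Lolium perenne, barley, peas and Chinese cabbage at 2-4 true leaf stage sprayed simultaneously with a Potter tower, compounds in DMSO at six concentrations (0.05% to 0.0001%). Phytotoxicity scored as % necrosis per EPPO PP1/135 at set intervals; five replicates per treatment and species; DMSO and water controls.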"}, "Chinese cabbage": {"test_system": "Chinese cabbage", "test": "Herbicidal bioassay, Chinese cabbage (% necrosis)", "type": "in vivo", "procedure": "A laboratory bioassay was conducted to screen ten compounds (Fluazifop (25); Ethyl fluazifop (62); five fluazifop analogues: 27, 28, 63, 64 and 65; mesofulfuron (6); and two mesosulfuron analogues: 8 and 61. for activity against Lolium perenne, barley, peas and Chinese cabbage. Compounds were diluted in DMSO. Controls were performed using both DMSO and water.\nPlants were obtained as seeds and were grown to the 2-4 true leaf stage. Plants were grown individually in seed trays. Each plant (in an approximately 3 cm diameter plug) was then detached from the tray for spraying. Environmental conditions were closely monitored and recorded and were within the optimal range of the target species.\nThe compounds were screened at a range of six concentrations, eg. 0.05%, 0.01%, 0.005%, 0.001%, 0.0005% and 0.0001%. Treatments will be applied directly onto the plants, using a potter tower.\nOne plant of each type will be sprayed using a potter tower. The 4 different types of weeds will be placed in a 10 cm diameter area underneath the potter sprayer and sprayed simultaneously. The growth of the plants and any Phytotoxicity effects will then be assessed at specified growth intervals, according to EPPO guideline PP1/135. Five replicates will be performed for each treatment, for each species."}}}
{"smiles": "CCOC(=O)C(C)Oc1ccc(Oc2ccc(C(F)(F)F)cn2)cc1", "note": "(stereo not drawn) [Fluazifop Ethyl ester (62)]", "values": [{"measurement": "Sum of % necrosis in barley", "setting": "barley; Dose 0.000001, Day 0", "value": "C (less than 50% necrosis)"}, {"measurement": "Sum of % necrosis in barley", "setting": "barley; Dose 0.000001, Day 1", "value": "C (less than 50% necrosis)"}, {"measurement": "Sum of % necrosis in barley", "setting": "barley; Dose 0.000001, Day 3", "value": "C (less than 50% necrosis)"}, {"measurement": "Sum of % necrosis in barley", "setting": "barley; Dose 0.000001, Day 7", "value": "C (less than 50% necrosis)"}, {"measurement": "Sum of % necrosis in barley", "setting": "barley; Dose 0.000001, Day 10", "value": "C (less than 50% necrosis)"}, {"measurement": "Sum of % necrosis in barley", "setting": "barley; Dose 0.000001, Day 14", "value": "C (less than 50% necrosis)"}, {"measurement": "Sum of % necrosis in barley", "setting": "barley; Dose 0.000001, Day 21", "value": "C (less than 50% necrosis)"}, {"measurement": "Sum of % necrosis in barley", "setting": "barley; Dose 0.000005, Day 0", "value": "C (less than 50% necrosis)"}, {"measurement": "Sum of % necrosis in barley", "setting": "barley; Dose 0.000005, Day 1", "value": "C (less than 50% necrosis)"}, {"measurement": "Sum of % necrosis in barley", "setting": "barley; Dose 0.000005, Day 3", "value": "C (less than 50% necrosis)"}, {"measurement": "Sum of % necrosis in barley", "setting": "barley; Dose 0.000005, Day 7", "value": "C (less than 50% necrosis)"}, {"measurement": "Sum of % necrosis in barley", "setting": "barley; Dose 0.000005, Day 10", "value": "C (less than 50% necrosis)"}, {"measurement": "Sum of % necrosis in barley", "setting": "barley; Dose 0.000005, Day 14", "value": "C (less than 50% necrosis)"}, {"measurement": "Sum of % necrosis in barley", "setting": "barley; Dose 0.000005, Day 21", "value": "C (less than 50% necrosis)"}, {"measurement": "Sum of % necrosis in barley", "setting": "barley; Dose 0.00001, Day 0", "value": "C (less than 50% necrosis)"}, {"measurement": "Sum of % necrosis in barley", "setting": "barley; Dose 0.00001, Day 1", "value": "C (less than 50% necrosis)"}, {"measurement": "Sum of % necrosis in barley", "setting": "barley; Dose 0.00001, Day 3", "value": "C (less than 50% necrosis)"}, {"measurement": "Sum of % necrosis in barley", "setting": "barley; Dose 0.00001, Day 7", "value": "C (less than 50% necrosis)"}, {"measurement": "Sum of % necrosis in barley", "setting": "barley; Dose 0.00001, Day 10", "value": "C (less than 50% necrosis)"}, {"measurement": "Sum of % necrosis in barley", "setting": "barley; Dose 0.00001, Day 14", "value": "C (less than 50% necrosis)"}, {"measurement": "Sum of % necrosis in barley", "setting": "barley; Dose 0.00001, Day 21", "value": "B (50%-80% necrosis)"}, {"measurement": "Sum of % necrosis in barley", "setting": "barley; Dose 0.00005, Day 0", "value": "C (less than 50% necrosis)"}, {"measurement": "Sum of % necrosis in barley", "setting": "barley; Dose 0.00005, Day 1", "value": "C (less than 50% necrosis)"}, {"measurement": "Sum of % necrosis in barley", "setting": "barley; Dose 0.00005, Day 3", "value": "C (less than 50% necrosis)"}, {"measurement": "Sum of % necrosis in barley", "setting": "barley; Dose 0.00005, Day 7", "value": "C (less than 50% necrosis)"}, {"measurement": "Sum of % necrosis in barley", "setting": "barley; Dose 0.00005, Day 10", "value": "C (less than 50% necrosis)"}, {"measurement": "Sum of % necrosis in barley", "setting": "barley; Dose 0.00005, Day 14", "value": "C (less than 50% necrosis)"}, {"measurement": "Sum of % necrosis in barley", "setting": "barley; Dose 0.00005, Day 21", "value": "B (50%-80% necrosis)"}, {"measurement": "Sum of % necrosis in barley", "setting": "barley; Dose 0.0001, Day 0", "value": "C (less than 50% necrosis)"}, {"measurement": "Sum of % necrosis in barley", "setting": "barley; Dose 0.0001, Day 1", "value": "C (less than 50% necrosis)"}, {"measurement": "Sum of % necrosis in barley", "setting": "barley; Dose 0.0001, Day 3", "value": "C (less than 50% necrosis)"}, {"measurement": "Sum of % necrosis in barley", "setting": "barley; Dose 0.0001, Day 7", "value": "C (less than 50% necrosis)"}, {"measurement": "Sum of % necrosis in barley", "setting": "barley; Dose 0.0001, Day 10", "value": "C (less than 50% necrosis)"}, {"measurement": "Sum of % necrosis in barley", "setting": "barley; Dose 0.0001, Day 14", "value": "C (less than 50% necrosis)"}, {"measurement": "Sum of % necrosis in barley", "setting": "barley; Dose 0.0001, Day 21", "value": "A (over 80% necrosis)"}, {"measurement": "Sum of % necrosis in barley", "setting": "barley; Dose 0.0005, Day 0", "value": "C (less than 50% necrosis)"}, {"measurement": "Sum of % necrosis in barley", "setting": "barley; Dose 0.0005, Day 1", "value": "C (less than 50% necrosis)"}, {"measurement": "Sum of % necrosis in barley", "setting": "barley; Dose 0.0005, Day 3", "value": "C (less than 50% necrosis)"}, {"measurement": "Sum of % necrosis in barley", "setting": "barley; Dose 0.0005, Day 7", "value": "C (less than 50% necrosis)"}, {"measurement": "Sum of % necrosis in barley", "setting": "barley; Dose 0.0005, Day 10", "value": "C (less than 50% necrosis)"}, {"measurement": "Sum of % necrosis in barley", "setting": "barley; Dose 0.0005, Day 14", "value": "C (less than 50% necrosis)"}, {"measurement": "Sum of % necrosis in barley", "setting": "barley; Dose 0.0005, Day 21", "value": "A (over 80% necrosis)"}, {"measurement": "Sum of % necrosis in Chinese cabbage", "setting": "Chinese cabbage; Dose 0.000001, Day 0", "value": "C (less than 50% necrosis)"}, {"measurement": "Sum of % necrosis in Chinese cabbage", "setting": "Chinese cabbage; Dose 0.000001, Day 1", "value": "C (less than 50% necrosis)"}, {"measurement": "Sum of % necrosis in Chinese cabbage", "setting": "Chinese cabbage; Dose 0.000001, Day 3", "value": "C (less than 50% necrosis)"}, {"measurement": "Sum of % necrosis in Chinese cabbage", "setting": "Chinese cabbage; Dose 0.000001, Day 7", "value": "C (less than 50% necrosis)"}, {"measurement": "Sum of % necrosis in Chinese cabbage", "setting": "Chinese cabbage; Dose 0.000001, Day 10", "value": "C (less than 50% necrosis)"}, {"measurement": "Sum of % necrosis in Chinese cabbage", "setting": "Chinese cabbage; Dose 0.000001, Day 14", "value": "C (less than 50% necrosis)"}, {"measurement": "Sum of % necrosis in Chinese cabbage", "setting": "Chinese cabbage; Dose 0.000001, Day 21", "value": "C (less than 50% necrosis)"}, {"measurement": "Sum of % necrosis in Chinese cabbage", "setting": "Chinese cabbage; Dose 0.000005, Day 0", "value": "C (less than 50% necrosis)"}, {"measurement": "Sum of % necrosis in Chinese cabbage", "setting": "Chinese cabbage; Dose 0.000005, Day 1", "value": "C (less than 50% necrosis)"}, {"measurement": "Sum of % necrosis in Chinese cabbage", "setting": "Chinese cabbage; Dose 0.000005, Day 3", "value": "C (less than 50% necrosis)"}, {"measurement": "Sum of % necrosis in Chinese cabbage", "setting": "Chinese cabbage; Dose 0.000005, Day 7", "value": "C (less than 50% necrosis)"}, {"measurement": "Sum of % necrosis in Chinese cabbage", "setting": "Chinese cabbage; Dose 0.000005, Day 10", "value": "A (over 80% necrosis)"}, {"measurement": "Sum of % necrosis in Chinese cabbage", "setting": "Chinese cabbage; Dose 0.000005, Day 14", "value": "A (over 80% necrosis)"}, {"measurement": "Sum of % necrosis in Chinese cabbage", "setting": "Chinese cabbage; Dose 0.000005, Day 21", "value": "A (over 80% necrosis)"}, {"measurement": "Sum of % necrosis in Chinese cabbage", "setting": "Chinese cabbage; Dose 0.00001, Day 0", "value": "C (less than 50% necrosis)"}, {"measurement": "Sum of % necrosis in Chinese cabbage", "setting": "Chinese cabbage; Dose 0.00001, Day 1", "value": "C (less than 50% necrosis)"}, {"measurement": "Sum of % necrosis in Chinese cabbage", "setting": "Chinese cabbage; Dose 0.00001, Day 3", "value": "C (less than 50% necrosis)"}, {"measurement": "Sum of % necrosis in Chinese cabbage", "setting": "Chinese cabbage; Dose 0.00001, Day 7", "value": "C (less than 50% necrosis)"}, {"measurement": "Sum of % necrosis in Chinese cabbage", "setting": "Chinese cabbage; Dose 0.00001, Day 10", "value": "B (50%-80% necrosis)"}, {"measurement": "Sum of % necrosis in Chinese cabbage", "setting": "Chinese cabbage; Dose 0.00001, Day 14", "value": "A (over 80% necrosis)"}, {"measurement": "Sum of % necrosis in Chinese cabbage", "setting": "Chinese cabbage; Dose 0.00001, Day 21", "value": "A (over 80% necrosis)"}]}
